Measured values: article PMC10189894 (Chemical Science, 2023)

Test: Autohydrolytic cascade reaction
Assay type: physicochemical
Conditions: EDTA at 10–200 μM; Fig. S9E

## O=C(O)CN(CCN(CC(=O)O)CC(=O)O)CC(=O)O [EDTA]
  effect on the ACR: inhibitory effect
